Assay results as given in article PMC8303947, “Evaluation of Ruthenium(II) N-Heterocyclic Carbene Complexes as Antibacterial Agents and Inhibitors of Bacterial Thioredoxin Reductase” (Molecules, 2021).
In brackets after ≈: the same amount, converted by molar mass. Read-outs that look alike come from different tables or passages of the source.

How the values were obtained:
[1] = test system: S. aureus ATCC 43300 (MRSA); test: Antimicrobial microtiter plate MIC assay, S. aureus ATCC 43300 (MRSA); assay type: cell-based, Staphylococcus aureus; conditions: Gram-positive, Mueller Hinton broth, 16–18 h at 37 °C
Method: (§1) The fungus Candida albicans was used as a non-bacterial reference organism. The broad-spectrum antibiotic Ciprofloxacin was used as a reference drug.
(§2) Compounds were tested in a microtiter plate assay according to CLSI guidelines against E. coli DSM 30083, A. baumannii DSM 30007, P. aeruginosa DSM 50071, B. subtilis DSM 402, S. aureus DSM 20231, S. aureus ATCC 43300 (MRSA), and C. albicans, as described previously. E. coli, A. baumannii, S. aureus, and B. subtilis were grown in Mueller Hinton broth, P. aeruginosa in cation-adjusted Mueller Hinton II, and C. albicans DSM1386 in Sabouraud broth. Compounds were dissolved in DMSO at 10 mg/mL. Starting from a 10 mg/mL stock solution, serial dilutions in culture media were prepared with the Tecan Freedom Evo 75 liquid handling workstation (Tecan, Männedorf, Switzerland), covering a range from 512 to 0.5 µg/mL. Assay volumes were 200 µL per well. After inoculating with 5 × 10^5 bacteria/mL from late exponential cultures grown in the same media, cultures were incubated for 16–18 h at 37 °C. The lowest compound concentration inhibiting visible bacterial growth was recorded as MIC.

E. coli DSM 30083 = test: Antimicrobial microtiter plate MIC assay, E. coli; assay type: cell-based, Escherichia coli; conditions: Mueller Hinton broth, 16–18 h at 37 °C
Method: as §1, §2

A. baumannii DSM 30007 = test: Antimicrobial microtiter plate MIC assay, A. baumannii; assay type: cell-based, Acinetobacter baumannii; conditions: Mueller Hinton broth, 16–18 h at 37 °C
Method: as §1, §2

P. aeruginosa DSM 50071 = test: Antimicrobial microtiter plate MIC assay, P. aeruginosa; assay type: cell-based, Pseudomonas aeruginosa; conditions: cation-adjusted Mueller Hinton II, 16–18 h at 37 °C
Method: as §1, §2

B. subtilis 168 = test: Antimicrobial microtiter plate MIC assay, B. subtilis; assay type: cell-based, Bacillus subtilis; conditions: Gram-positive, B. subtilis 168 (DSM 402), Mueller Hinton broth, 16–18 h at 37 °C
Method: as §1, §2

C. albicans DSM 1386 = test: Antimicrobial microtiter plate MIC assay, C. albicans; assay type: cell-based, Candida albicans; conditions: Sabouraud broth
Method: as §1
E. coli, A. baumannii, S. aureus, and B. subtilis were grown in Mueller Hinton broth, P. aeruginosa in cation-adjusted Mueller Hinton II, and C. albicans DSM1386 in Sabouraud broth. Compounds were dissolved in DMSO at 10 mg/mL. […] Assay volumes were 200 µL per well. After inoculating with 5 × 10^5 bacteria/mL from late exponential cultures grown in the same media, cultures were incubated for 16–18 h at 37 °C. The lowest compound concentration inhibiting visible bacterial growth was recorded as MIC.

S. aureus DSM 20231 = test: Antimicrobial microtiter plate MIC assay, S. aureus DSM 20231; assay type: cell-based, Staphylococcus aureus; conditions: Mueller Hinton broth, 16–18 h at 37 °C
Method: as §1, §2

E. coli TrxR = biological target: T1, E. coli TrxR (Escherichia coli, UniProt P0A9P4); test: Inhibition of bacterial TrxR (E. coli), 5,5-dithiobis-(2-nitrobenzoic acid) reduction assay; assay type: biochemical
T1 construct: purchased Merck (Darmstadt, Germany)
Method: The inhibition of TrxR has been considered as a novel mode of action for antibiotics and in our previous report, the relevance for gold NHC complexes had been shown.
The TrxR (E. coli) inhibition assay was performed according to a previously published procedure. It is partly based on the procedure developed by Lu et al. and detects the formation of 5-TNB (5-thionitrobenzoic acid). Solutions of E. coli TrxR (35.4 U/mL) and of its substrate thioredoxin (Trx) E. coli (156 µg/mL) (both purchased from Merck (Darmstadt, Germany) and diluted with distilled water) and fresh stock solutions of the test compounds (in DMF) were prepared. TE buffer (Tris-HCl 50 mM, EDTA 1 mM, pH 7.5) containing graded concentrations of the respective compounds (20 µL) or buffer without compounds (20 µL, as control) were mixed with TrxR solution (10 µL), Trx solution (10 µL), and a solution of NADPH (200 µM) in TE buffer (100 µL) in a well on a 96-well plate. As blank solution, 200 µM NADPH in TE buffer (100 µL) mixed with a DMF/buffer mixture (40 µL) was used (final concentrations of DMF: 0.5% v/v). The solutions on the 96-well plates were incubated for 75 min at 25 °C with moderate shaking. […] The highest test compound concentration was used and the enzyme solution was replaced by TE buffer for this purpose.

[2] = Escherichia coli, DSM30083, Gram-negative
[3] = Acinetobacter baumannii, DSM30007, Gram-negative
[4] = Pseudomonas aeruginosa, DSM50071, Gram-negative
[5] = Staphylococcus aureus, DSM20231, Gram-positive
[6] = Candida albicans, DSM1386, fungus
[7] = purified E. coli TrxR, DTNB reduction, 75 min preincubation at 25 °C, mean (±SD) of three experiments, read-out: IC50 inhibition of E. coli TrxR

T1 sequence (P0A9P4 whole entry): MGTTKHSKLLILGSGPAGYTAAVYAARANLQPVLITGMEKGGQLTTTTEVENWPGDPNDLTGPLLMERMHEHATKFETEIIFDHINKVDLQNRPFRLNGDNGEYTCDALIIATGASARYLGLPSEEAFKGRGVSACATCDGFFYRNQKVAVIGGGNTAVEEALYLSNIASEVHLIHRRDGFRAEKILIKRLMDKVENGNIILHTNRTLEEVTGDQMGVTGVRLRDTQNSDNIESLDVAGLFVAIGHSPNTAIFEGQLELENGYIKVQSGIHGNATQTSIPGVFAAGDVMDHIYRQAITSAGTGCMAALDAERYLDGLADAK

Row | Compound | MIC [1] [µM] | MIC (E. coli DSM 30083; Gram-negative) [µM] | MIC (A. baumannii DSM 30007; Gram-negative) [µM] | MIC (P. aeruginosa DSM 50071; Gram-negative) [µM] | MIC (B. subtilis 168) [µM] | MIC (C. albicans DSM 1386; fungus) [µM] | MIC (S. aureus DSM 20231; Gram-positive) [µM] | MIC ([1]; Staphylococcus aureus) [µM] | MIC (E. coli DSM 30083; [2]) [µM] | MIC (A. baumannii DSM 30007; [3]) [µM] | MIC (P. aeruginosa DSM 50071; [4]) [µM] | MIC (B. subtilis 168; Bacillus subtilis, DSM402) [µM] | MIC (S. aureus DSM 20231; [5]) [µM] | MIC (C. albicans DSM 1386; [6]) [µM] | IC50 (E. coli TrxR) [µM] | IC50 (E. coli TrxR; [7]) [µM]
1 | 1,3-Dibenzyl-5-chloro-1H-benzimidazolium bromide [2e] | 77.7 | 1242.6 | 1242.6 | 1242.6 | 155.3 | 1242.6 | 77.7 | – | – | – | – | – | – | – | – | –
2 | COc1ccc2c(c1)n(Cc1ccccc1)[c](=[Ru]([Cl])[Cl])n2Cc1ccccc1.Cc1ccc(C(C)C)cc1 [3c, (1,3-Dibenzyl-5-methoxy-1H-benzimidazol-2-ylidene)-dichlorido-(η^6-p-cymene)ruthenium(II)] | 25.2 | >806.8 | >806.8 | >806.8 | 25.2 | >806.8 | 25.2 | – | – | – | – | – | – | – | – | –
3 | O=C(O)c1cn(C2CC2)c2cc(N3CCNCC3)c(F)cc2c1=O [Ciprofloxacin, reference compound] | – | – | – | – | – | – | – | 12 (≈ 3.98 µg/mL) | 1.5 (≈ 0.497 µg/mL) | 24 (≈ 7.95 µg/mL) | 1.2 (≈ 0.398 µg/mL) | 24 (≈ 7.95 µg/mL) | 12 (≈ 3.98 µg/mL) | – | – | –
4 | 1,3-Dibenzyl-5-methoxy-1H-benzimidazolium bromide [2c] | 19.5 | 1250.8 | 1250.8 | 1250.8 | 78.2 | 1250.8 | 19.5 | – | – | – | – | – | – | – | – | –
5 | Brc1ccc2c(c1)n(Cc1ccccc1)c[n+]2Cc1ccccc1 [2f, 1,3-Dibenzyl-5-bromo-1H-benzimidazolium bromide] | – | – | – | – | – | – | – | 69.8 | > 1120 | > 1120 | > 1120 | 279 | 140 | > 1120 | > 100 | –
6 | Cc1ccc(C(C)C)cc1.Clc1ccc2c(c1)n(Cc1ccccc1)[c](=[Ru]([Cl])[Cl])n2Cc1ccccc1 [3e, (1,3-Dibenzyl-5-chloro-1H-benzimidazol-2-ylidene)-dichlorido-(η^6-p-cymene)ruthenium(II)] | 12.5 | 401.2 | >802.4 | >802.4 | 25.1 | >802.4 | 25.1 | – | – | – | – | – | – | – | – | –
7 | c1ccc(Cn2c[n+](Cc3ccccc3)c3ccccc32)cc1 [2a] | – | – | – | – | – | – | – | 42.2 | 1350 | 1350 | 1350 | 169 | 42.2 | 1350 | – | > 100
8 | Cc1ccc(C(C)C)cc1.Fc1ccc2c(c1)n(Cc1ccccc1)[c](=[Ru]([Cl])[Cl])n2Cc1ccccc1 [3d, (1,3-Dibenzyl-5-fluoro-1H-benzimidazol-2-ylidene)-dichlorido-(η^6-p-cymene)ruthenium(II)] | 25.7 | 822.4 | 205.6 | >822.4 | 25.7 | >822.4 | 25.7 | – | – | – | – | – | – | – | – | –
9 | Cc1ccc(C(C)C)cc1.[Cl][Ru]([Cl])=[c]1n(Cc2ccccc2)c2ccc(Br)cc2n1Cc1ccccc1 [3f, (1,3-Dibenzyl-5-bromo-1H-benzimidazol-2-ylidene)-dichlorido-(η^6-p-cymene)ruthenium(II)] | 11.7 | 374.6 | >749.1 | >749.1 | 11.7 | >749.1 | 23.4 | – | – | – | – | – | – | – | – | > 100
10 | Cc1ccc2c(c1)n(Cc1ccccc1)c[n+]2Cc1ccccc1 [2b, 1,3-Dibenzyl-5-methyl-1H-benzimidazolium bromide] | – | – | – | – | – | – | – | 163 | 1300 | 1300 | 1300 | 651 | 81.4 | 1300 | > 100 | –
11 | Cc1ccc(C(C)C)cc1.Cc1ccc2c(c1)n(Cc1ccccc1)[c](=[Ru]([Cl])[Cl])n2Cc1ccccc1 [3b, (1,3-Dibenzyl-5-methyl-1H-benzimidazol-2-ylidene)-dichlorido-(η^6-p-cymene)ruthenium(II)] | 25.9 | 827.7 | 413.8 | 413.8 | 25.9 | >827.7 | 25.9 | – | – | – | – | – | – | – | – | 14
12 | 1,3-Dibenzyl-5-fluoro-1H-benzimidazolium bromide [2d] | 161.1 | 1288.7 | >1288.7 | >1288.7 | 322.2 | >1288.7 | 161.1 | – | – | – | – | – | – | – | – | –
